This is an account of results in patent publication US20100313310A1, “METHOD FOR IMPROVED UTILIZATION OF THE PRODUCTION POTENTIAL OF TRANSGENIC PLANTS” (priority 2006, published 2010).

A value given as a limit tells only on which side of the number the result lay.

The test system of data set [1] is cotton aphid (Aphis gossypii). In words: Spray treatment of transgenic cotton (line DP444 BG/RR) populated by cotton aphid, kill in %, Colby synergy. In kind it is in vivo. The following applies: spirotetramate at 100 ppm by spray where applied. From the text:
(§1) This is based on the following calculation base and assumption (“Colby formula”): […]
(§2) If • X is the kill rate, expressed in % of the untreated and not transgenically modified control, when employing the active compound A at an application rate of m g/ha or at a concentration of m ppm, • Y is the kill rate, expressed in % of the untreated and not transgenically modified control, when using a transgenic plant and • E is the kill rate, expressed in % of the untreated and not transgenically modified control, when employing active compound A and using a transgenically modified plant, the application rate being m and n g/ha or the concentration being m and n ppm, then
(§3) If the actual kill rate (i.e. the activity observed) is higher than the calculated one, the combination of active compound treatment and transgenically modified plant is superadditive in its kill, i.e. a synergistic effect between the active compound treatment and the use of a transgenic plant is present. In this case, the actually observed kill rate must thus be higher than the value calculated using the formula above for the kill rate (E). […]
(§4) After a desired period of time, the kill in % is determined by counting the animals. […]

Data set [2] relates to armyworm (Spodoptera frugiperda). The data set can be described thus: Spray treatment of transgenic maize lines against armyworm, kill in %, Colby synergy. In kind it is in vivo. The note with it: spirotetramate at 100 ppm by spray where applied.
Text: as §1, §2, §3, §4

The test system of data set [3] is armyworm (Spodoptera exigua). In words: Spray treatment of transgenic maize lines against larvae of the armyworm, kill in %, Colby synergy. The data set is classed as in vivo. The note with it: spirotetramate at 100 ppm by spray where applied.
Text: as §1, §2, §3, §4

As usually defined, the melting point is the temperature, or range, at which the solid turns liquid. The molecule `COC1CCC2(CC1)NC(=O)C(c1cc(C)ccc1C)=C2O` (stereo not drawn) gave a melting point above 220 °C.

Turning to spirotetramate, the results for the “Kill in % after 4d (observed)” value in data set [1], in data set [2] (after 4 d) and in data set [3] were 35%, 60% and 10%, respectively. The “Kill in % after 1d (observed)” value in data set [2] (after 1 d) is given as 0%.

On to `COC1CCC2(CC1)NC(=O)C(c1c(C)ccc(Br)c1C)=C2O` (stereo not drawn), for which the melting point was above 220 °C.

`COC1CCC2(CC1)NC(=O)C(c1c(C)cc(C)c(C)c1C)=C2O` (stereo not drawn) had a melting point above 220 °C.

For the molecule `CCOC(=O)OC1=C(c2cc(C)c(Cl)cc2C)C(=O)NC12CCC(OC)CC2` (stereo not drawn), the melting point was 162 °C.

Consider `COC1CCC2(CC1)NC(=O)C(c1c(C)ccc(Cl)c1C)=C2O` (stereo not drawn), for which the melting point was 219 °C.
